In US12011499B2, “Peptides and compositions for use in cosmetics” (LIPOTRUE, S.L., priority 2020, dated 2024):

Columns and labels:
[1] = system: fibrillin-1; experiment: Modulation of fibrillin-1 synthesis in HDFa cell culture (sandwich ELISA); type: cell-based, human; conditions: 48 hours
Description: Modulation of fibrilin-1 synthesis by Ac-SEQ ID NO: 3-NH2 peptide (synthesized in accordance with examples 1-3 and 5) was evaluated in vitro using HDFa.
HDFa were seeded in 96-well plates at a density of 1×10^4 cells/well and they were put in contact with three non-cytotoxic concentrations of Ac-SEQ ID NO: 3-N H2 peptide: 0.01 mg/ml, 0.05 mg/ml and 0.1 mg/ml for 48 hours. Untreated cells were included as basal control. At the end of the monitored experiment, cell culture media were extracted from all wells and stored at −80° C. Modulation on fibrillin-1 levels was analyzed by means of sandwhich ELISA following manufacturer's instructions.

[2] = system: versican; experiment: Modulation of versican synthesis in HDFa cell culture (sandwich ELISA); type: cell-based, human; conditions: 24 hours
Description: The effect of Ac-SEQ ID NO: 3-NH2 peptide (synthesized in accordance with examples 1-3 and 5) on versican production was evaluated in vitro using human dermal fibroblasts (hereinafter, HDFa).
Briefly, HDFa cells were seeded in 96-well plates at 1×10^4 cells/well in fibroblasts growth media and maintained for 24 hours at standard culture conditions (37° C., 95% humidity, 5% CO2). After the aforementioned incubation, medium was removed and new medium containing the non-cytotoxic concentrations of Ac-SEQ ID NO: 3-NH2 peptide of: 0.01 mg/ml, 0.05 mg/ml and 0.1 mg/ml was added and incubated for 24 hours. 0.1 μM retinoic acid was included as positive control for versican stimulation and untreated cells were included as basal control. Cell culture media and cell lysate were collected from all wells at the end of the experiment and stored at −80° C. Ex-novo synthesis of versican was measured by means of sandwich ELISA following manufacturer's instructions.

[3] = system: HDFa; experiment: Cytotoxicity of tested concentrations on HDFa; type: cell-based, human; conditions: 0.01, 0.05, 0.1 and 0.5 mg/ml
[4] = system: tropoelastin; experiment: Modulation of tropoelastin synthesis in HDFa cell culture (sandwich ELISA); type: cell-based, human; conditions: 24 hours
Description: The potential effect of Ac-SEQ ID NO: 3-NH2 peptide (synthesized in accordance with examples 1-3 and 5) on tropoelastin synthesis was evaluated in vitro using HDFa.
HDFa were put in culture at a density of 1×10^4 cells/well in 96-well plates and incubated for 24 hours with non-cytotoxic increasing concentrations of Ac-SEQ ID NO: 3-NH2 peptide (0.01 mg/ml, 0.05 mg/ml, 0.1 mg/ml and 0.5 mg/ml). Untreated cells were included as basal control. At the end of the monitored experimental time cell culture media and cell lysates were extracted from all wells and stored at −80° C. Ex-novo synthesis of tropoelastin was measured by means of sandwich ELISA following manufacturer's instructions.

[5] = system: Metalloproteinase-1 (MMP1); experiment: Gene expression modulation in HDFa (RTqPCR), MMP1; type: cell-based, human; conditions: 0.1 mg/ml, 6 hours
Description: (§1) Changes in gene expression levels are represented as a positive or negative fold-change with regard to the basal control (untreated cells). Bars from top to bottom in the y axis refer to: Metalloproteinase-1 (MMP1), Metalloproteinase-3 (MMP3), Fibronectin 1 (FN1), Fibrillin-1 (FBN1) and Versican (VCAN) genes, and x axis refers to fold change vs basal control.
(§2) Modulation of gene expression by Ac-SEQ ID NO: 3-NH2 peptide (synthesized in accordance with examples 1-3 and 5) on HDFa was evaluated in vitro.
(§3) Briefly, HDFa cells were seeded in duplicate in 6-well plates at a density of 4×10^5 cells/well and they were maintained at standard culture conditions (37° C., 95% humidity, 5% CO2) for 24 hours. Then, cells were treated with Ac-SEQ ID NO: 3-NH2 peptide at the non-cytotoxic concentration of 0.05 and 0.1 mg/ml for additional 6 hours. Untreated cells were used as basal control. […] RNA was then quantified by nanodrop, adjusted in concentration and processed for retrotranscription to cDNA using a commercially available kit (High-Capacity cDNA Reverse Transcription kit—Thermofisher Scientific, USA). Resulting cDNA was used to perform a RTqPCR (Real Time Quantitative Polymerase Chain Reaction) using taqman technology and a panel of probes designed to target specific genes related to extracellular matrix components and structure.

[6] = system: Versican (VCAN); experiment: Gene expression modulation in HDFa (RTqPCR), VCAN; type: cell-based, human; conditions: 0.05 mg/ml, 6 hours
Description: as §1, §2, §3

[7] = system: versican; experiment: Modulation of versican synthesis on human skin explants (immunostaining); conditions: 0.005 mg/ml in cosmetic formulation, topical on days 0, 2, 4 and 7, explants collected day 9
Description: The effect of Ac-SEQ ID NO: 3-NH2 peptide (synthesized in accordance with examples 1-3 and 5) on versican production was evaluated on human skin explants from a donor.
Briefly, skin explants were obtained from a volunteer donor undergoing a plastic surgery procedure. Skin excess was donated for the present study. Skin explants were treated with a cosmetic formulation containing 1% (m/v) from a stock at 0.05% (m/v) of Ac-SEQ ID NO: 3-NH2 (effective final concentration of Ac-SEQ ID NO: 3-NH2, 0.005 mg/ml). On days 0, 2, 4 and 7, the tested product was topically applied on the basis of 2 μl per cm^2 of skin explant and spread using a small spatula.
On day 9, 3 explants from each condition were collected and fixed in a buffered formalin solution. After fixation for 24 hours in buffered formalin, samples were dehydrated and impregnated and embedded in paraffin. 5-μm-thick sections were made using a Leica RM 2125 Minot-type microtome, and the sections were mounted on Superfrost® histological glass slides. The microscopical observations were performed using a Leica DMLB or Olympus BX43 microscope. Pictures were digitized with a numeric DP72 Olympus camera with CellD storing software.
The immunostaining was performed using an automated slide-processing system (Dako, AutostainerPlus). The staining was assessed by microscopical observation and image analysis.

[8] = system: Fibronectin 1 (FN1); experiment: Gene expression modulation in HDFa (RTqPCR), FN1; type: cell-based, human; conditions: 0.1 mg/ml, 6 hours
Description: as §1, §2, §3

[9] = system: Metalloproteinase-3 (MMP3); experiment: Gene expression modulation in HDFa (RTqPCR), MMP3; type: cell-based, human; conditions: 0.1 mg/ml, 6 hours
Description: as §1, §2, §3

[10] = system: hyaluronic acid; experiment: Modulation of hyaluronic acid synthesis in HDFa cell culture (competitive ELISA); type: cell-based, human; conditions: 48 hours
Description: Modulation of Hyaluronic acid production by Ac-SEQ ID NO: 3-NH2 peptide (synthesized in accordance with examples 1-3 and 5) on HDFa was evaluated in vitro.
Briefly, HDFa were seeded in 96-well plates at a density of 1×10^4 cells/well and, then, incubated with non-cytotoxic concentrations of Ac-SEQ ID NO: 3-NH2 peptide, this is 0.01 mg/ml, 0.05 mg/ml, 0.1 mg/ml and 0.5 mg/ml, for 48 hours. 0.1 μM retinoic acid was included as positive control and untreated cells were included as basal control. At the end of the experiment, cell culture media were extracted from all wells and stored at −80° C. Ex-novo synthesis of hyaluronic acid was measured by means of competitive ELISA following manufacturer's instructions.

[11] = system: facial skin firmness; experiment: Clinical evaluation of facial skin firmness on female volunteers (Dynaskin); type: in vivo, human; conditions: 0.015 mg/ml in cosmetic formulation, two times per day, after 56 days, whole treated group
Description: The effect of Ac-SEQ ID NO: 3-NH2 peptide (synthesized in accordance with examples 1-3 and 5) on facial skin firmness was evaluated on 22 Caucasian female volunteers.
Briefly, volunteers applied a cosmetic formulation with 3% (m/v) from a stock at 0.05% (m/v) of Ac-SEQ ID NO: 3-NH2 (effective final concentration of Ac-SEQ ID NO: 3-NH2, 0.015 mg/ml) or without (placebo). The application regime was of two times per day during 56 days, on early morning and before bedtime. Cosmetic formulations were applied on either half of clean face in order to compare the effect of placebo and the active on the same volunteer.
On days 0, 7, 14 and 56, a Dynaskin device was used on each volunteer in order to measure the firmness quality of the skin according to three parameters: volume (mm^3), area (mm^2) and depth (mm). Dynaskin uses an air beam projection onto the cheek area causing a deformation of the skin. This deformation magnitude is measured by means of a specific software collecting data of the above three parameters for each volunteer and on each hemiface.

[12] = system: Fibrillin-1 (FBN1); experiment: Gene expression modulation in HDFa (RTqPCR), FBN1; type: cell-based, human; conditions: 0.05 mg/ml, 6 hours
Description: as §1, §2, §3

[13] = system: fibrillin-1; experiment: Modulation of fibrillin-1 synthesis on human skin explants (immunostaining); conditions: 0.005 mg/ml in cosmetic formulation, topical on days 0, 2, 4 and 7, explants collected day 9
Description: The effect of Ac-SEQ ID NO: 3-NH2 peptide (synthesized in accordance with examples 1-3 and 5) on fibrillin-1 production was evaluated on human skin explants from a donor.
Briefly, skin explants were treated with a cosmetic formulation containing 1% (m/v) from a stock at 0.05% (m/v) of Ac-SEQ ID NO: 3-N H2 (effective final concentration of Ac-SEQ ID NO: 3-N H2, 0.005 mg/ml). On days 0, 2, 4 and 7, the tested product was topically applied on the basis of 2 μl per cm^2 of skin explant and spread using a small spatula.
On day 9, 3 explants from each condition were collected and frozen at −80° C. The frozen samples were cut into 7-μm-thick sections using a Leica CM 3050 cryostat. Sections were then mounted on Superfrost® plus silanized glass slides. The microscopical observations were performed using a Leica DMLB or Olympus BX43 microscope. Pictures were digitized with a numeric DP72 Olympus camera with CellD storing software.
The nuclei were counterstained using propidium iodide. The immunostaining was performed using an automated slide-processing system (Dako, AutostainerPlus). The staining was assessed by microscopical observation and image analysis.

## Ac-ALHKVK-NH2 [Ac-SEQ ID NO: 3-NH2, Ac-Ala-Leu-His-Lys-Val-Lys-NH2]
[1]; 0.01 mg/ml
  increase in fibrillin-1 synthesis compared to basal control: 18%
[1]; 0.05 mg/ml
  increase in fibrillin-1 synthesis compared to basal control: 30%
[1]; 0.10 mg/ml
  increase in fibrillin-1 synthesis compared to basal control: 41%
[2]; 0.01 mg/ml
  increase in versican synthesis compared to basal control: 24%
[2]; 0.05 mg/ml
  increase in versican synthesis compared to basal control: 35%
[2]; 0.10 mg/ml
  increase in versican synthesis compared to basal control: 62%
[3]
  cytotoxicity on HDFa: non-cytotoxic
[4]; 0.01 mg/ml
  increase in tropoelastin synthesis compared to basal control: 3%
[4]; 0.05 mg/ml
  increase in tropoelastin synthesis compared to basal control: 11%
[4]; 0.10 mg/ml
  increase in tropoelastin synthesis compared to basal control: 20%
[4]; 0.50 mg/ml
  increase in tropoelastin synthesis compared to basal control: 31%
[5]
  MMP1 gene expression, fold change vs basal control: −1.33
[6]
  Versican gene expression, fold change vs basal control: 1.22
[7]
  increase in skin surface occupied by versican protein compared to basal control: 29%
[8]
  Fibronectin 1 gene expression, fold change vs basal control: 1.41
[9]
  MMP3 gene expression, fold change vs basal control: −1.20
[10]; 0.01 mg/ml
  increase in hyaluronic acid production compared to basal control: 3%
[10]; 0.05 mg/ml
  increase in hyaluronic acid production compared to basal control: 8%
[10]; 0.1 mg/ml
  increase in hyaluronic acid production compared to basal control: 10%
[10]; 0.5 mg/ml
  increase in hyaluronic acid production compared to basal control: 18%
[11]
  decrease in area of cheek deformation versus initial time: 7%
  decrease in depth of cheek deformation versus initial time: 14.5%
  decrease in volume of cheek deformation versus initial time: 20%
[12]
  Fibrillin 1 gene expression, fold change vs basal control: 1.55
[13]
  increase in skin surface occupied by fibrillin-1 protein compared to basal control: 24%
